Data: patent US20250340552A1, “COMPOUNDS, COMPOSITIONS AND METHODS OF TREATING DISORDERS” (HOTSPOT THERAPEUTICS, INC., priority 2022, published 2025)
Where two headings read alike, the source gives them in different places.

Target: T1, Cbl-B (Homo sapiens, UniProt Q13191)
T1 construct: MSD-Based Assay for Degradation of Cbl-B in THP-1 Cells; endogenous in cells; host or cells: THP-1 (title) / Jurkat (protocol text)
Assay: MSD-based assay for degradation of Cbl-B in THP-1 cells
Type: cell-based
In short: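 Reported Dmax bins are A >70%, B 50–70%, C 30–50% and D <30%, from an electrochemiluminescence (MSD) sandwich assay of Cbl-B in cell lysates. THP-1 cells were exposed to compounds for 24 hours before lysis.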

[1] = Cbl-B degradation, Jurkat cells seeded (heading: THP-1 cells), 24 hours incubation, MSD readout
[2] = Cbl-B degradation, Jurkat cells seeded (heading: THP-1 cells), 24 hours incubation, MSD readout, read-out: Dmax

T1 sequence (Q13191 whole entry): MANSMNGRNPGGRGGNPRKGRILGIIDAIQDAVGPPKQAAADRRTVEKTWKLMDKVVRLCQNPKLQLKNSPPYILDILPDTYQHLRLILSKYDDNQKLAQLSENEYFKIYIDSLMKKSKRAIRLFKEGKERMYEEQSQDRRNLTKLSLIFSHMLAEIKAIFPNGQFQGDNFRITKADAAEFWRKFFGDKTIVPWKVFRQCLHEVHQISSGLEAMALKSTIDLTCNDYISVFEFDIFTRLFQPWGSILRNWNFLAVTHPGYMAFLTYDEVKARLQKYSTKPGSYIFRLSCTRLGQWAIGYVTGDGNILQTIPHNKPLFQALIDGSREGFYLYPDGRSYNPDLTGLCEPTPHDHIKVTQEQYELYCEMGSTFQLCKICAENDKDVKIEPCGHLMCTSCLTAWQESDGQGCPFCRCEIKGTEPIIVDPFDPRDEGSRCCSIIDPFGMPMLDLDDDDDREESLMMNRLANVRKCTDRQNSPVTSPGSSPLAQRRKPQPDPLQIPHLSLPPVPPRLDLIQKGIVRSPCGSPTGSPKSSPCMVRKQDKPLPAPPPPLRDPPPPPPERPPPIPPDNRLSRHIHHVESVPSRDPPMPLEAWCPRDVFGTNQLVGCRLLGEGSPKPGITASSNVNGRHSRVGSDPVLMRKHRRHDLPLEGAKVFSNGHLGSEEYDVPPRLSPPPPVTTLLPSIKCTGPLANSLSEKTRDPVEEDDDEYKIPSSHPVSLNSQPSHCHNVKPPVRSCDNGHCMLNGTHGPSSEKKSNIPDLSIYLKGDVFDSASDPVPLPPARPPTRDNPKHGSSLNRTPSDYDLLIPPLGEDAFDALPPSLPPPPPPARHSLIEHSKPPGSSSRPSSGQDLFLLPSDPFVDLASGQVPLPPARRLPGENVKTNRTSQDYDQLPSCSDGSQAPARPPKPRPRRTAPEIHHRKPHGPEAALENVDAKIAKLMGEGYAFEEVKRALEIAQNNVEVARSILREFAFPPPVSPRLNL

SMILES | DC50 [1] | Dmax [2] | Dmax (THP-1)
Cn1cnnc1[C@@H](c1cccc(-n2cc3c(C(F)(F)F)cc(CN4CCC(OCCN5CCC(CN6CCN(c7ccc8c(c7)CN([C@@H]7CCC(=O)NC7=O)C8=O)CC6)CC5)CC4)cn3c2=O)c1)C1COC1 [Compound 57] | 1000 to 10000 nM | 50 to 70% | –
Cn1cnnc1[C@@H](c1cccc(-n2cc3c(C(F)(F)F)cc(CN4CCC(OCCN5CCC(CN6CCN(c7ccc8c(c7)CN([C@H]7CCC(=O)NC7=O)C8=O)CC6)CC5)CC4)cn3c2=O)c1)C1COC1 [Compound 58] | 30 to 300 nM | > 70% | –
Cn1cnnc1[C@@H](c1cccc(-n2cc3c(C(F)(F)F)cc(CN4CC[C@@H](OCCOCc5ccc(COCCNc6cccc7c6C(=O)N(C6CCC(=O)NC6=O)C7=O)cc5)C4)cn3c2=O)c1)C1CCC1 (stereo partly shown) [Compound 59] | 300 to 1000 nM | 30 to 50% | –
Cn1cnnc1[C@@H](c1cccc(-n2cc3c(C(F)(F)F)cc(CN4CC[C@H](OCCOCc5ccc(COCCNc6cccc7c6C(=O)N(C6CCC(=O)NC6=O)C7=O)cc5)C4)cn3c2=O)c1)C1CCC1 (stereo partly shown) [Compound 60] | 300 to 1000 nM | 30 to 50% | –
Cn1cnnc1CC1(c2cccc(-n3cc4c(C(F)(F)F)cc(CN5CCN(CCN6CCC(CN7CCN(c8ccc9c(c8)CN([C@H]8CCC(=O)NC8=O)C9=O)CC7)CC6)CC5)cn4c3=O)c2)COC1 [Compound 62] | 30 to 300 nM | > 70% | –
Cn1cnnc1[C@@H](c1cccc(-n2cc3c(C(F)(F)F)cc(CN4CCN(CCN5CCC(CN6CCN(c7ccc8c(c7)CN([C@@H]7CCC(=O)NC7=O)C8=O)CC6)CC5)CC4)cn3c2=O)c1)C1CCC1 [Compound 63] | 300 to 1000 nM | 30 to 50% | –
Cn1cnnc1[C@@H](c1cccc(N2Cc3c(cc(CN4CCC(OCCN5CCC(CN6CCN(c7ccc8c(c7)CN([C@@H]7CCC(=O)NC7=O)C8=O)CC6)CC5)CC4)cc3C(F)(F)F)C2=O)c1)C1CCC1 [Compound 65] | 300 to 1000 nM | 50 to 70% | –
Cn1cnnc1[C@@H](c1cccc(N2Cc3c(cc(CN4CCC(OCCN5CCC(CN6CCN(c7ccc8c(c7)CN([C@H]7CCC(=O)NC7=O)C8=O)CC6)CC5)CC4)cc3C(F)(F)F)C2=O)c1)C1CCC1 [Compound 66] | 30 to 300 nM | – | 50 to 70%
Cn1cnnc1CC1(c2cccc(N3Cc4c(cc(CN5CCC(OCCN6CCC(CN7CCN(c8ccc9c(c8)CN([C@H]8CCC(=O)NC8=O)C9=O)CC7)CC6)CC5)cc4C(F)(F)F)C3=O)c2)COC1 [Compound 76] | 30 to 300 nM | 50 to 70% | –
Cn1cnnc1CC1(c2cccc(-n3cc4c(C(F)(F)F)cc(CN5CCC[C@@H](OCc6ccc(CN7CCN(c8ccc9c(c8)CN(C8CCC(=O)NC8=O)C9=O)CC7)cc6)C5)cn4c3=O)c2)COC1 (stereo partly shown) [Compound 96] | 30 to 300 nM | 30 to 50% | –
Cn1cnnc1[C@@H](c1cccc(-n2cc3c(C(F)(F)F)cc(CN4CCC(COCc5ccc(CN6CCN(c7ccc8c(c7)CN([C@@H]7CCC(=O)NC7=O)C8=O)CC6)cc5)CC4)cn3c2=O)c1)C1CCC1 [Compound 101] | 30 to 300 nM | – | 50 to 70%
Cn1cnnc1CC1(c2cccc(-n3cc4c(C(F)(F)F)cc(CN5CC(OCCN6CCC(CN7CCN(c8ccc9c(c8)CN(C8CCC(=O)NC8=O)C9=O)CC7)CC6)C5)cn4c3=O)c2)COC1 (stereo not shown) [Compound 113] | > 10000 nM | – | < 30%
Cn1cnnc1[C@@H](c1cccc(-n2cc3c(C(F)(F)F)cc(CN4CC(OCCN5CCC(CN6CCN(c7ccc8c(c7)CN(C7CCC(=O)NC7=O)C8=O)CC6)CC5)C4)cn3c2=O)c1)C1CCC1 (stereo partly shown) [Compound 114] | > 10000 nM | < 30% | –
Cn1cnnc1[C@@H](c1cccc(-n2cc3c(C(F)(F)F)cc(CN4CCN(C(=O)CN5CCC(CN6CCN(c7ccc8c(c7)CN([C@@H]7CCC(=O)NC7=O)C8=O)CC6)CC5)CC4)cn3c2=O)c1)C1CCC1 [Compound 129] | > 10000 nM | < 30% | –
CN(C(=O)c1ccc(N2CCN(c3ccc4c(c3)CN([C@@H]3CCC(=O)NC3=O)C4=O)CC2)cc1)C1CCN(Cc2cc(C(F)(F)F)c3cn(-c4cccc([C@H](c5nncn5C)C5CCC5)c4)c(=O)n3c2)CC1 [Compound 137] | 30 to 300 nM | 30 to 50% | –
CN(CCOC1CCN(Cc2cc(C(F)(F)F)c3cn(-c4cccc([C@H](c5nncn5C)C5CCC5)c4)c(=O)n3c2)CC1)C(=O)c1ccc(N2CCC(c3ccc4c(c3)CN([C@H]3CCC(=O)NC3=O)C4=O)CC2)cc1 [Compound 152] | < 30 nM | > 70% | –
CN(C(=O)c1ccc(CN2CCN(c3ccc4c(c3)CN([C@@H]3CCC(=O)NC3=O)C4=O)CC2)cc1)C1CCN(Cc2cc(C(F)(F)F)c3cn(-c4cccc([C@H](c5nncn5C)C5CCC5)c4)c(=O)n3c2)CC1 [Compound 159] | > 10000 nM | – | < 30%
Cn1cnnc1[C@@H](c1cccc(-n2cc3c(C(F)(F)F)cc(CN4CCC(CCN5CCC(CC6CCN(c7ccc8c(c7)CN([C@@H]7CCC(=O)NC7=O)C8=O)CC6)CC5)CC4)cn3c2=O)c1)C1CCC1 [Compound 163] | > 10000 nM | < 30% | –

Now from value to compound, other results behind:

DC50 [1] | Dmax [2] | SMILES | Dmax (THP-1)
300 to 1000 nM | 30 to 50% | CO[C@H]1C[C@](c2cccc(-n3cc4c(C(F)(F)F)cc(CN5CCC(OCCN6CCC(CN7CCN(c8ccc9c(c8)CN([C@@H]8CCC(=O)NC8=O)C9=O)CC7)CC6)CC5)cn4c3=O)c2)(c2nncn2C)C1 [Compound 69] | –
30 to 300 nM | 50 to 70% | CO[C@H]1C[C@](c2cccc(-n3cc4c(C(F)(F)F)cc(CN5CCC(OCCN6CCC(CN7CCN(c8ccc9c(c8)CN([C@H]8CCC(=O)NC8=O)C9=O)CC7)CC6)CC5)cn4c3=O)c2)(c2nncn2C)C1 [Compound 70] | –
1000 to 10000 nM | 30 to 50% | CO[C@H]1C[C@@](c2cccc(-n3cc4c(C(F)(F)F)cc(CN5CCC(OCCN6CCC(CN7CCN(c8ccc9c(c8)CN([C@@H]8CCC(=O)NC8=O)C9=O)CC7)CC6)CC5)cn4c3=O)c2)(c2nncn2C)C1 [Compound 73] | –
1000 to 10000 nM | 50 to 70% | CO[C@H]1C[C@@](c2cccc(-n3cc4c(C(F)(F)F)cc(CN5CCC(OCCN6CCC(CN7CCN(c8ccc9c(c8)CN([C@H]8CCC(=O)NC8=O)C9=O)CC7)CC6)CC5)cn4c3=O)c2)(c2nncn2C)C1 [Compound 74] | –
< 30 nM | – | Cn1cnnc1[C@@H](c1cccc(-n2cc3c(C(F)(F)F)cc(CN4CCC[C@H](OCc5ccc(CN6CCN(c7ccc8c(c7)CN([C@H]7CCC(=O)NC7=O)C8=O)CC6)cc5)C4)cn3c2=O)c1)C1CCC1 [Compound 82] | –
30 to 300 nM | – | Cn1cnnc1[C@@H](c1cccc(-n2cc3c(C(F)(F)F)cc(CN4CCC[C@@H](OCc5ccc(CN6CCN(c7ccc8c(c7)CN(C7CCC(=O)NC7=O)C8=O)CC6)cc5)C4)cn3c2=O)c1)C1CCC1 (stereo partly shown) [Compound 95] | –
1000 to 10000 nM | 30 to 50% | Cn1cnnc1[C@@H](c1cccc(-n2cc3c(C(F)(F)F)cc(-c4nccn4CCOCCN4CCC(CN5CCN(c6ccc7c(c6)CN([C@@H]6CCC(=O)NC6=O)C7=O)CC5)CC4)cn3c2=O)c1)C1CCC1 [Compound 97] | –
> 10000 nM | < 30% | Cn1cnnc1CC1(c2cccc(-n3cc4c(C(F)(F)F)cc(-c5nccn5CCOCCN5CCC(CN6CCN(c7ccc8c(c7)CN([C@@H]7CCC(=O)NC7=O)C8=O)CC6)CC5)cn4c3=O)c2)COC1 [Compound 99] | –
30 to 300 nM | > 70% | Cn1cnnc1[C@@H](c1cccc(-n2cc3c(C(F)(F)F)cc(CN4CCC(COCc5ccc(CN6CCN(c7ccc8c(c7)CN([C@H]7CCC(=O)NC7=O)C8=O)CC6)cc5)CC4)cn3c2=O)c1)C1CCC1 [Compound 102] | –
30 to 300 nM | – | CN(CCO[C@@H]1CCCN(Cc2cc(C(F)(F)F)c3cn(-c4cccc([C@H](c5nncn5C)C5CCC5)c4)c(=O)n3c2)C1)C(=O)c1ccc(N2CCN(c3ccc4c(c3)CN([C@H]3CCC(=O)NC3=O)C4=O)CC2)cc1 [Compound 104] | –
300 to 1000 nM | – | CN(CCO[C@H]1CCCN(Cc2cc(C(F)(F)F)c3cn(-c4cccc([C@H](c5nncn5C)C5CCC5)c4)c(=O)n3c2)C1)C(=O)c1ccc(N2CCN(c3ccc4c(c3)CN([C@H]3CCC(=O)NC3=O)C4=O)CC2)cc1 [Compound 106] | –
< 30 nM | 50 to 70% | Cn1cnnc1[C@@H](c1cccc(-n2cc3c(C(F)(F)F)cc(CN4CCC(OCCc5ccc(CN6CCN(c7ccc8c(c7)CN([C@H]7CCC(=O)NC7=O)C8=O)CC6)cc5)CC4)cn3c2=O)c1)C1CCC1 [Compound 116] | –
30 to 300 nM | – | Cn1cnnc1[C@@H](c1cccc(-n2cc3c(C(F)(F)F)cc(CN4CCC(N5CCC(CN6CCN(c7ccc8c(c7)CN([C@H]7CCC(=O)NC7=O)C8=O)CC6)CC5)CC4)cn3c2=O)c1)C1CCC1 [Compound 136] | –
300 to 1000 nM | < 30% | CN(C(=O)c1ccc(N2CCN(c3ccc4c(c3)CN([C@H]3CCC(=O)NC3=O)C4=O)CC2)cc1)C1CCN(Cc2cc(C(F)(F)F)c3cn(-c4cccc([C@H](c5nncn5C)C5CCC5)c4)c(=O)n3c2)CC1 [Compound 138] | –
> 10000 nM | < 30% | Cn1cnnc1[C@@H](c1cccc(-n2cc3c(C(F)(F)F)cc(COCCCN4CCC(CN5CCN(c6ccc7c(c6)CN([C@H]6CCC(=O)NC6=O)C7=O)CC5)CC4)cn3c2=O)c1)C1CCC1 [Compound 150] | –
30 to 300 nM | 50 to 70% | CN(CCOC1CCN(Cc2cc(C(F)(F)F)c3cn(-c4cccc([C@H](c5nncn5C)C5CCC5)c4)c(=O)n3c2)CC1)C(=O)c1ccc(N2CCC(c3ccc4c(c3)CN([C@@H]3CCC(=O)NC3=O)C4=O)CC2)cc1 [Compound 151] | –
< 30 nM | > 70% | CN(C(=O)c1ccc(CN2CCN(c3ccc4c(c3)CN([C@H]3CCC(=O)NC3=O)C4=O)CC2)cc1)C1CCN(Cc2cc(C(F)(F)F)c3cn(-c4cccc([C@H](c5nncn5C)C5CCC5)c4)c(=O)n3c2)CC1 [Compound 160] | –
< 30 nM | > 70% | Cn1cnnc1[C@@H](c1cccc(-n2cc3c(C(F)(F)F)cc(CN4CCC(CCN5CCC(CC6CCN(c7ccc8c(c7)CN([C@H]7CCC(=O)NC7=O)C8=O)CC6)CC5)CC4)cn3c2=O)c1)C1CCC1 [Compound 164] | –
